Test results reported in PubChem BioAssay (NCI).
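All cell lines were grown in 96-well plates and treated with compound for 48 hours. Here, GI50 denotes the concentration required for 50% inhibition of growth. TGI denotes the concentration required for complete inhibition of growth.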

Experiments:
Assay in all cases: DTP human tumour cell line panel, 48 h
[1] = tested on: M19-MEL melanoma
[2] = tested on: SNB-78 CNS
[3] = tested on: LXFL 529 NSCLC
[4] = tested on: XF 498 CNS
[5] = tested on: DLD-1 colon
[6] = tested on: KM20L2 colon
[7] = tested on: RXF-631 renal
[8] = tested on: HOP-18 NSCLC
[9] = tested on: MDA-N

Compound	TGI [1] [µM]	TGI [2] [µM]	TGI [3] [µM]	TGI [4] [µM]	TGI [5] [µM]	TGI [6] [µM]	TGI [7] [µM]	TGI [8] [µM]	TGI [9] [µM]	GI50 [6] [µM]	GI50 [1] [µM]	GI50 [2] [µM]	GI50 [3] [µM]	GI50 [8] [µM]	GI50 [4] [µM]	GI50 [5] [µM]
Cn1c(=O)c2[nH]cnc2n(CC(N)=O)c1=O	> 100	> 100	> 100	> 100	> 100											
COC1C2c3cc4c(cc3CC(C#N)(c3ccccc32)N1C(=O)c1ccccc1)OCO4 (stereo not drawn)		> 100	> 100	> 100	> 100	> 100	> 100	> 100								
COC1OC(C)C2OC(C)(C)OC2C1OC(C)=O (stereo not drawn)	> 100	> 100	> 100	> 100	> 100	> 100	> 100	> 100								
CCOC(=O)C(CNc1ccc(O)cc1)NC(=O)c1ccccc1 (stereo not drawn)	> 100	> 100	> 100	> 100	> 100	> 100		> 100								
C[C@]12CCNC(=O)C=C1CC[C@@H]1C2CC[C@@]2(C)C1CC[C@@H]2OC(=O)COc1ccc(N(CCCl)CCCl)cc1 (stereo partly drawn)	18.6	> 70	21.8	4.89	17.8	30.3	> 88.8	47.7	29							
O=C1c2ccccc2C(=O)c2c(NCC3CO3)ccc(NCC3CO3)c21 (stereo not drawn)									2.52							
NCCCCCCNCc1cccc2ccccc12	> 100	> 100	> 100	> 100	> 100	> 100		> 100								
O=C(N/N=C/c1cc(Cl)cc(Cl)c1[O-])c1ccccc1.O=C(N/N=C/c1cc(Cl)cc(Cl)c1[O-])c1ccccc1.[Co+2]	> 100	> 100	> 100	> 100	> 100	> 100		> 100		47.8	20.5	53.2	7.38	9.34	12.4	14.7
NNC(=O)c1ccc(OCc2nc3ccccc3[nH]2)cc1									> 100							
Cc1ccc(C)c(NC(=O)CC2SC(=Nc3ccccc3Cl)NC2=O)c1 (stereo not drawn)	> 100	> 100	> 100	> 100	> 100	> 100	> 100	> 100								
CCCCCCCCCCCCCC(=O)CSCCNC(=O)CCNC(=O)[C@@H](O)C(C)(C)COP(=O)(O)OP(=O)(O)OCC1OC(n2cnc3c(N)ncnc32)C(O)C1OP(=O)(O)O (stereo partly drawn)	35.3	36.5	32.5	34.3	41.1	48		31.7								
Clc1ccccc1C(Nc1ncccn1)Nc1ncccn1									> 100							
CC12CCC3c4cc(Br)c(O)c(Br)c4CCC3C1CCC2O (stereo not drawn)									14.2							
CCN(CC)CCn1[nH]c2c3ccc(=O)cc3sc3c(NCCN)ccc1c32	1.48	4.49	1.77	0.974	10.1			13.6								
CCOC(=O)/C(=C/c1ccc(N(CCC#N)CCC#N)cc1C)NC(=O)/C=C/c1ccccc1	> 100	> 100	> 100	> 100	> 100	> 100										
CCOc1ccc(O)cc1[P+](c1ccccc1)(c1ccccc1)c1ccccc1	15.3	84.8	12.1	4.52	17.6	17.9		9.61								
Cc1cc(=O)[nH]c(CNC(=O)c2cccc(C(=O)NCc3cc(=O)[nH]c(C)n3)c2)n1	> 100	> 100	> 100		> 100	> 100		> 100								

Compound	TGI [1] [µM]	TGI [2] [µM]	TGI [3] [µM]	TGI [4] [µM]	TGI [5] [µM]	TGI [6] [µM]	TGI [7] [µM]	TGI [8] [µM]	TGI [9] [µM]	GI50 [6] [µM]	GI50 [1] [µM]	GI50 [2] [µM]	GI50 [3] [µM]	GI50 [8] [µM]	GI50 [4] [µM]	GI50 [5] [µM]
CN(C)c1ccc(C(c2ccc(Cl)cc2)c2ccc(N(C)C)cc2)cc1									> 100							
COC(=O)/C=c1\s/c(=C\C(=O)OC)c2ccccc12	> 100	> 100	> 100		> 100	> 100	> 100	> 100								
CN(/N=C/c1cccc2cccnc12)c1c([N+](=O)[O-])cc([N+](=O)[O-])cc1[N+](=O)[O-]	> 100	> 100	> 100	> 100	> 100	> 100	> 100	> 100								
c1ccc(P(=C2c3ccccc3-c3ccccc32)(c2ccccc2)c2ccccc2)cc1	20.3		20		65.5	8.21	28.9	80								
CC(=O)OC1CC[C@@]2(C)C(CC[C@]3(C)C2CC=C2[C@@H]4C(C)[C@H](C)CCC4(C)CCC23C)[C@@]1(C)C(=O)O (stereo partly drawn)	51	65.6	39.4	36.1	46.4	29.4	68.6	28.8	42.3							
Cc1nc2sccn2c1C(=O)NC(=O)Nc1ccc(Cl)cc1	> 100	> 100	> 100	69.2	> 100	> 100										
Oc1[nH]c2ccccc2c1N=Nc1c(F)c(F)c(F)c(F)c1F									> 100							
O=C(CCc1nnc2s/c(=C\c3ccccc3Cl)c(=O)n12)Nc1cc(Cl)ccc1Cl	> 100	> 100	> 100	> 100	> 100			> 100								
C=CCOC(=O)C1CCC(=O)N1C(=O)C(Cl)Cl (stereo not drawn)	> 100	> 100	> 100	33.2	> 100	> 100		> 100								
CN(C)CCNC(=O)c1cccc2ccc(-c3ccc(-c4ccccc4)cc3)nc12	3.23	28.3	3.39		8.64	4.67	3.99	26.4								
O=C(C/C(CCC(=O)N(Cc1ccccc1)Cc1ccccc1)=N/Nc1ccc([N+](=O)[O-])cc1[N+](=O)[O-])c1ccccc1	> 100	> 100	> 100	> 100	> 100	> 100		> 100								
COc1cc2c(cc1C1=NC(C)(C)CO1)OCO2	> 100		> 100	> 100	> 100	> 100	> 100	> 100								
CC[N+](C)(CC)CC(C)(C)C(=O)/C=C/c1ccc(/C=C/C(=O)C(C)(C)C[N+](C)(CC)CC)cc1	> 100	> 100	> 100		> 100	> 100	> 100									
N#Cc1ccc2cc3c(cc2c1)OCO3	> 100	> 100	> 100		> 100	> 100	> 100									
Cc1cccc(NC(=O)/C=C/c2ccc([N+](=O)[O-])cc2)c1									> 52.2							
O=C1c2ccccc2C(=O)c2sc(Nc3ccccc3Cl)nc21	3.17	40.8	5.56	30.2	25.1	39.5	40.6	27.2	6.13							
CC1NC(=O)C2=C1C(N)=NC(=O)C2 (stereo not drawn)	> 100	> 100	> 100	> 100	> 100	> 100		> 100								
